The record followed here is ChEMBL document CHEMBL6087396, “Perspective for Drug Discovery Targeting SARS Coronavirus Methyltransferases: Function, Structure and Inhibition” (J Med Chem, 2024).

For one experiment, the target named is Replicase polyprotein 1ab. Kind of experiment: Inhibition of N-terminal 6His-tagged SARS-CoV nsp14 extracted from Escherichia coli.
Conditions: not given
Regarding `Nc1ncnc2c1c(C#Cc1cnc3ccccc3c1)cn2[C@@H]1O[C@H](CSCC[C@H](N)C(=O)O)[C@@H](O)[C@H]1O`, the midpoint of inhibition, the IC50, lay at 3 nM. In turn, `CC1=C(C)C(=O)C(C(C)(C)CC(=O)N(CCCCSC[C@H]2O[C@@H](n3cnc4c(N)ncnc43)[C@H](O)[C@@H]2O)Cc2cccc(-c3ccc(Cl)cc3)c2)=C(C)C1=O` had an IC50 of 1100 nM. On the same count and under the same terms, with `COc1ccc(S(=O)(=O)N(C)C[C@H]2O[C@@H](n3cc(C#Cc4cnc5ccccc5c4)c4c(N)ncnc43)[C@H](O)[C@@H]2O)cc1C#N` the figure was 720 nM; with `Nc1ncnc2c1ncn2[C@@H]1O[C@H](CNS(=O)(=O)c2ccc3ccccc3c2)[C@@H](O)[C@H]1O`, 93000 nM. In turn, `Nc1ncnc2c1ncn2[C@@H]1O[C@H](CSCc2cc(C(=O)O)cc(-c3ccccc3)c2)[C@@H](O)[C@H]1O` returned an IC50 of 580 nM. The same measure, in the same setting: with `NC[C@@H](CC[C@H](N)C(=O)O)C[C@H]1O[C@@H](n2cnc3c(N)ncnc32)[C@H](O)[C@@H]1O` the figure was 1100 nM; with `Nc1ncnc2c1ncn2[C@@H]1O[C@H](CN(CCO[C@@H]2[C@H](O)[C@@H](CO)O[C@H]2n2cnc3c(N)ncnc32)S(=O)(=O)c2ccc(Cl)c([N+](=O)[O-])c2)[C@@H](O)[C@H]1O`, 600 nM; with `Nc1ncnc2c1ncn2[C@@H]1O[C@H](CSCC[C@H](N)C(=O)O)[C@@H](O)[C@H]1O` [S-ADENOSYLHOMOCYSTEINE], 16000 nM. The compound `Cc1cc(=O)oc2cc(NC(=O)[C@H]3O[C@@H](n4cc(C#Cc5cncnc5)c5c(N)ncnc54)[C@H](O)[C@@H]3O)ccc12` showed an IC50 of 31000 nM.

The target of another experiment is T1, Replicase polyprotein 1ab (Severe acute respiratory syndrome coronavirus 2, UniProt P0DTD1). Briefly: Binding affinity to SARS-CoV-2 nsp14 assessed as inhibition constant.
Conditions: not given
Take `Nc1ncnc2c1ncn2[C@@H]1O[C@H](CSCCCCNCc2cccc(-c3ccc(Cl)cc3)c2)[C@@H](O)[C@H]1O`: the Ki was determined as 6000 nM.

As to `CC(C)N(CCCNC(=O)Nc1ccc(C(C)(C)C)cc1)C[C@H]1O[C@@H](n2cc(Br)c3c(N)ncnc32)[C@H](O)[C@@H]1O`, the Ki was 8000 nM.

In the next experiment the target is T1, Replicase polyprotein 1ab. Kind of experiment: Binding affinity to SARS-CoV-2 nsp14 assessed as dissociation constant.
Conditions: not given
Regarding `Nc1ncnc2c1c(C#Cc1cnc3ccccc3c1)cn2[C@@H]1O[C@H](CSCC[C@H](N)C(=O)O)[C@@H](O)[C@H]1O`, the Kd was 25.2 nM. As to `NC[C@@H](CC[C@H](N)C(=O)O)C[C@H]1O[C@@H](n2cnc3c(N)ncnc32)[C@H](O)[C@@H]1O`, the Kd was determined as 1.6 nM.

For another experiment, the system named is SARS-CoV-2. Kind of experiment: Antiviral activity against SARS-CoV-2 infected in African green monkey Vero E6 cells assessed as inhibition of viral growth incubated for 72 hrs by plaque assay. The experiment is classed as functional, organism-based. Conditions: Severe acute respiratory syndrome coronavirus 2, Vero C1008, 72 h.
Consider `O=c1nc2n(CCO)c3ccccc3nc-2c(=O)n1-c1ccccc1`, for which the EC50 stood at 5.7 nM.

In the case of `O=c1c2ccccc2[se]n1-c1ccccc1` [EBSELEN], the EC50 was determined as 34 nM. On the same count and under the same terms, with `CC(=O)c1cc(O)c2ccccc2c1O` the figure was 8.5 nM; with `N#Cc1ccc(N2N=C3c4ccc(C(=O)O)cc4CC[C@@H]3[C@@H]2C2CCCC2)cc1Cl` [PF-03882845], 11 nM; with `O=C(O)C1=CC(=C(c2ccc(O)c(C(=O)O)c2)c2ccc(O)c(C(=O)O)c2)C=CC1=O` [AURINTRICARBOXYLIC ACID], 0.47 nM. `CCN(C[C@H]1O[C@@H](n2cnc3c(N)ncnc32)[C@H](O)[C@@H]1O)S(=O)(=O)c1ccc(Cl)c(C#N)c1`: the EC50 was determined as 1.9 nM.

A word on the IC50: it is the midpoint of a concentration-inhibition curve. The term Ki denotes the equilibrium dissociation constant of an inhibitor or competing ligand from its target. As a reminder, the Kd is a measure of binding affinity in units of concentration. Usually EC50 stands for the concentration needed to bring the measured effect to its halfway point.
